Ends that are not written are not given here.
How the values were obtained:
[1] = system: VEGF-induced retinal vascular permeability; experiment: Fluorescein angiography after intravitreal co-injection with VEGF164; type: in vivo, mouse (C57BL/6J); conditions: mouse eye, co-injected intravitreally with 12.6 ng VEGF164 at 20-fold molar excess; 20 h after injection; qualitative
Procedure: (§1) Intravitreal injection to assess bioactivity on vascular permeability. C57BL/6J mice, 6-8 weeks of age, were cared for in accordance with the Association for Research in Vision and Opthalmology Statement for the Use of Animals in Ophthalmic and Vision Research. For anesthesia, each received intramuscularly 20 mg/kg ketamine, 20 mg/kg xylazine and 800 mg/kg urethane in 0.3-0.4 ml of phosphate buffered saline (PBS, 1.06 mM KH2PO4, 0.15 M NaCl and 3.00 mM Na2HPO4, pH 7.4). Under 10× magnification, 1 μl of murine VEGF164 (12.6 ng/μl in PBS; R&D Systems, Minneapolis, Minn.) was delivered through a 20° beveled glass pipette, with a tip diameter of 13-20 μm. The contralateral eye received an equal volume of PBS alone or PBS containing 12.6 ng VEGF164, and a 20-fold molar excess of PEDF (232 ng), ACT (278 ng), HSP47 (278 ng), PEDFpep (28.1 ng), ACTpep (29.7 ng), or CHIMERApep (28.2 ng).
Fluorescein angiograghy. Twenty hours after intravitreal injections, each pupil was dilated with one drop of 1% atropine sulfate. After intraperitoneal injection of 0.1 ml of 25% fluorescein, successive retina photographs were taken with a Kowa Genesis camera. The first photograph was taken within 20 seconds of the intraperitoneal fluorescein injection. […] Fluorescein leakage manifests as indistinct vascular borders progressing to diffusely hazy fluorescence.

[2] = system: VEGF-induced retinal vascular permeability; experiment: Evans blue assay after intravitreal co-injection with VEGF164; type: in vivo, mouse (C57BL/6J); conditions: mouse eye, co-injected intravitreally with VEGF164 at 20-fold molar excess
Procedure: as §1
Evans Blue assay. […]
To assess the Evans blue-albumin concentration, the optical density of the retinal extract and plasma samples were measured at 620 nm and 740 nm. The retinal vasopermeability was calculated as the quantity of retinal Evans blue normalized to retinal dry weight, plasma Evans blue concentration, and circulation time by using the formula as described^32,44. […]

[3] = system: VEGF164-stimulated bovine retinal capillary endothelial cell migration; conditions: 8 h
Procedure: BRCEC migration assay. Bovine retinal capillary endothelial cells (BRCEC) were isolated and cultured as described 45. […] Cells, between the fifth and ninth passage, were starved overnight in MEM with D-Val and 2% fetal bovine serum. Polycarbonate filters (10 μm pore-size, PVPF; Osmonics Inc., Minnetonka, Minn.) were coated with 100 μg/ml collagen. Quadruplicates with test samples in MEM D-Val (28 μl), and 10^4 cells in MEM D-Val (50 μl) were placed in the lower and upper wells, respectively, of the microchemotaxis chamber (NeuroProbe, Gaithersburg, Md.). After incubating 8 hours at 37° C., the non-migrated cells on the upper surface of the filter were removed, and the filters were stained with Harris' hematoxylin. For each of the test samples, one 400× field per quadrant of each of the quadruplicates was counted. From the total cell number in the 4 fields, the mean and standard error of the quadruplicate wells were calculated. Baseline migration equaled the number of migrated cells with MEM D-Val without any added proteins or peptides. The difference between baseline and the number of migrated cells with VEGF added equals maximal total migration.

VLLSPLSVATALSALSLGAEQRTESIIHRALYYDLISSPDIHGT [PEDFpep]
effect on VEGF-induced fluorescein leakage / vascular permeability (fluorescein angiography) [1]: effectively inhibits | inhibition of VEGF-induced retinal vascular permeability (Evans blue-albumin) ([2]; 24 h, VEGF-induced increase = 100%, mean ±SE): 83.7±17.1% | effect on VEGF-induced vascular permeability by Evans blue assay ([2]; qualitative statement): effectively inhibited | IC50 [3]: 3 nM
